Measured values as given in US10202361B2, “Pyridazinones as herbicides” (E I DU PONT DE NEMOURS AND COMPANY, priority 2014, dated 2019).
Where two headings read alike, the source gives them in different places.

Key:
Assay in all cases: Test C pre-/postemergence greenhouse herbicide test
Type in all cases: in vivo
[1] = system: galium (catchweed bedstraw, Galium aparine); details: Galium, read-out: Plant response rating; for pest or weed control at 31 g/ha: 31 g ai/ha; for pest or weed control at 62 g/ha: 62 g ai/ha; for pest or weed control at 125 g/ha: 125 g ai/ha; for pest or weed control at 250 g/ha: 250 g ai/ha
Method in brief: (§1)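 Seeds in loam–sand blend sprayed preemergence, and 1- to 4-leaf plants (2–18 cm) sprayed postemergence, with compounds in non-phytotoxic solvent plus surfactant. Visual rating versus controls after 13–15 d in greenhouse, 0 (no effect) to 100 (complete control).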

[2] = system: ryegrass, Italian (Italian ryegrass, Lolium multiflorum); details: Lolium multiflorum, Ryegrass, Italian, read-out: Plant response rating; for pest or weed control at 31 g/ha: 31 g ai/ha; for pest or weed control at 62 g/ha: 62 g ai/ha; for pest or weed control at 125 g/ha: 125 g ai/ha; for pest or weed control at 250 g/ha: 250 g ai/ha
Method in brief: as §1

corn (Zea mays) = details: Zea mays, Corn, read-out: Plant response rating; for plant injury at 31 g/ha: 31 g ai/ha; for plant injury at 62 g/ha: 62 g ai/ha; for plant injury at 125 g/ha: 125 g ai/ha; for plant injury at 250 g/ha: 250 g ai/ha
Method in brief: as §1

[3] = system: waterhemp (common waterhemp, Amaranthus rudis); details: Waterhemp
Method in brief: as §1

[4] = system: velvetleaf (Abutilon theophrasti); details: Abutilon theophrasti, Velvetleaf, read-out: Plant response rating; for pest or weed control at 62 g/ha: 62 g ai/ha; for pest or weed control at 125 g/ha: 125 g ai/ha; for pest or weed control at 250 g/ha: 250 g ai/ha
Method in brief: as §1

[5] = system: barnyardgrass (Echinochloa crus-galli); details: Barnyardgrass
Method in brief: as §1

kochia (Kochia scoparia) = details: Postemergence
Method in brief: as §1

[6] = system: foxtail, giant (giant foxtail, Setaria faberii); details: Setaria faberi, Foxtail, Giant, read-out: Plant response rating; for pest or weed control at 31 g/ha: 31 g ai/ha; for pest or weed control at 62 g/ha: 62 g ai/ha; for pest or weed control at 125 g/ha: 125 g ai/ha; for pest or weed control at 250 g/ha: 250 g ai/ha
Method in brief: as §1

[7] = system: oilseed rape (Brassica napus); details: Oilseed Rape
Method in brief: as §1

[8] = system: crabgrass, Large (large crabgrass, Digitaria sanguinalis); details: Digitaria sanguinalis, Crabgrass, Large, read-out: Plant response rating; for pest or weed control at 31 g/ha: 31 g ai/ha; for pest or weed control at 62 g/ha: 62 g ai/ha; for pest or weed control at 125 g/ha: 125 g ai/ha; for pest or weed control at 250 g/ha: 250 g ai/ha
Method in brief: as §1

soybean (Glycine max) = details: Glycine max, Soybean, read-out: Plant response rating; for plant injury at 62 g/ha: 62 g ai/ha; for plant injury at 125 g/ha: 125 g ai/ha; for plant injury at 250 g/ha: 250 g ai/ha
Method in brief: as §1

[9] = system: lambsquarters (Chenopodium album)
Method in brief: as §1

[10] = system: nutsedge, yellow (yellow nutsedge, Cyperus esculentus); details: Cyperus, Nutsedge, Yellow, read-out: Plant response rating; for pest or weed control at 31 g/ha: 31 g ai/ha; for pest or weed control at 62 g/ha: 62 g ai/ha; for pest or weed control at 125 g/ha: 125 g ai/ha; for pest or weed control at 250 g/ha: 250 g ai/ha
Method in brief: as §1

[11] = post-emergence, Postemergence, 31 g ai/ha

Molecule `COc1cc(=O)n(-c2ccc(F)cc2)nc1Cc1ccnc(C(F)(F)F)c1` [Compound 17, 2-(4-fluorophenyl)-5-methoxy-6-[[2-(trifluoromethyl)-4-pyridinyl]methyl]-3 (2H)-pyridazinone] has a pest or weed control at 31 g/ha ([1]; post-emergence, Postemergence) of 60%, a pest or weed control at 62 g/ha ([1]; post-emergence, Postemergence) of 70% and a pest or weed control at 125 g/ha ([1]; post-emergence, Postemergence) of 75%. For the same molecule, the pest or weed control at 250 g/ha ([1]; post-emergence, Postemergence) was 85%, the pest or weed control at 31 g/ha ([1]; pre-emergence, Preemergence) was 100% and the pest or weed control at 62 g/ha ([1]; pre-emergence, Preemergence) was 100%. For the same molecule, the pest or weed control at 125 g/ha ([1]; pre-emergence, Preemergence) was 100%, the pest or weed control at 250 g/ha ([1]; pre-emergence, Preemergence) was 100% and the pest or weed control at 31 g/ha ([2]; post-emergence, Postemergence) was 5%. For the same molecule, the pest or weed control at 62 g/ha ([2]; post-emergence, Postemergence) was 5%, the pest or weed control at 125 g/ha ([2]; post-emergence, Postemergence) was 5% and the pest or weed control at 250 g/ha ([2]; post-emergence, Postemergence) was 5%. It also gave a pest or weed control at 31 g/ha ([2]; pre-emergence, Preemergence) of 5%, a pest or weed control at 62 g/ha ([2]; pre-emergence, Preemergence) of 10% and a pest or weed control at 125 g/ha ([2]; pre-emergence, Preemergence) of 70%. The pest or weed control at 250 g/ha ([2]; pre-emergence, Preemergence) was 75%, the plant injury at 31 g/ha (corn (Zea mays); post-emergence, Postemergence) was 10% and the plant injury at 62 g/ha (corn (Zea mays); post-emergence, Postemergence) was 15%. It also gave a plant injury at 125 g/ha (corn (Zea mays); post-emergence, Postemergence) of 15%, a plant injury at 250 g/ha (corn (Zea mays); post-emergence, Postemergence) of 15% and a plant injury at 31 g/ha (corn (Zea mays); pre-emergence, Preemergence) of 45%. The plant injury at 62 g/ha (corn (Zea mays); pre-emergence, Preemergence) was 65%, the plant injury at 125 g/ha (corn (Zea mays); pre-emergence, Preemergence) was 85% and the plant injury at 250 g/ha (corn (Zea mays); pre-emergence, Preemergence) was 100%. It also gave a Plant response rating ([3]; Postemergence, 31 g ai/ha) of 60, a Plant response rating ([3]; Postemergence, 125 g ai/ha) of 85 and a Plant response rating ([3]; Postemergence, 250 g ai/ha) of 85. For the same molecule, the Plant response rating ([3]; Preemergence, 62 g ai/ha) was 100, the Plant response rating ([3]; Preemergence, 125 g ai/ha) was 100 and the Plant response rating ([3]; Preemergence, 250 g ai/ha) was 100. The pest or weed control at 31 g/ha [4, 11] was 20%, the pest or weed control at 62 g/ha ([4]; post-emergence, Postemergence) was 20% and the pest or weed control at 125 g/ha ([4]; post-emergence, Postemergence) was 30%. The pest or weed control at 250 g/ha ([4]; post-emergence, Postemergence) was 45%, the pest or weed control at 62 g/ha ([4]; pre-emergence, Preemergence) was 75% and the pest or weed control at 125 g/ha ([4]; pre-emergence, Preemergence) was 100%. It also gave a pest or weed control at 250 g/ha ([4]; pre-emergence, Preemergence) of 100%, a Plant response rating ([5]; Postemergence, 31 g ai/ha) of 5 and a Plant response rating ([5]; Postemergence, 62 g ai/ha) of 5. It also gave a Plant response rating ([5]; Postemergence, 125 g ai/ha) of 10, a Plant response rating ([5]; Postemergence, 250 g ai/ha) of 35 and a Plant response rating ([5]; Preemergence, 31 g ai/ha) of 80. It also gave a Plant response rating ([5]; Preemergence, 62 g ai/ha) of 90, a Plant response rating ([5]; Preemergence, 125 g ai/ha) of 100 and a Plant response rating ([5]; Preemergence, 250 g ai/ha) of 100. It also gave a Plant response rating (kochia (Kochia scoparia); 31 g ai/ha) of 80, a Plant response rating (kochia (Kochia scoparia); 62 g ai/ha) of 90 and a Plant response rating (kochia (Kochia scoparia); 125 g ai/ha) of 90. For the same molecule, the Plant response rating (kochia (Kochia scoparia); 250 g ai/ha) was 90, the pest or weed control at 31 g/ha ([6]; post-emergence, Postemergence) was 10% and the pest or weed control at 62 g/ha ([6]; post-emergence, Postemergence) was 10%. It also gave a pest or weed control at 125 g/ha ([6]; post-emergence, Postemergence) of 20%, a pest or weed control at 250 g/ha ([6]; post-emergence, Postemergence) of 45% and a pest or weed control at 31 g/ha ([6]; pre-emergence, Preemergence) of 100%. The pest or weed control at 62 g/ha ([6]; pre-emergence, Preemergence) was 100%, the pest or weed control at 125 g/ha ([6]; pre-emergence, Preemergence) was 100% and the pest or weed control at 250 g/ha ([6]; pre-emergence, Preemergence) was 100%. The Plant response rating ([7]; Postemergence, 31 g ai/ha) was 5, the Plant response rating ([7]; Postemergence, 62 g ai/ha) was 20 and the Plant response rating ([7]; Postemergence, 125 g ai/ha) was 25. It also gave a Plant response rating ([7]; Preemergence, 31 g ai/ha) of 50, a Plant response rating ([7]; Preemergence, 62 g ai/ha) of 100 and a Plant response rating ([7]; Preemergence, 125 g ai/ha) of 100. It also gave a Plant response rating ([7]; Preemergence, 250 g ai/ha) of 100, a pest or weed control at 31 g/ha ([8]; post-emergence, Postemergence) of 10% and a pest or weed control at 62 g/ha ([8]; post-emergence, Postemergence) of 10%. For the same molecule, the pest or weed control at 125 g/ha ([8]; post-emergence, Postemergence) was 15%, the pest or weed control at 250 g/ha ([8]; post-emergence, Postemergence) was 40% and the pest or weed control at 31 g/ha ([8]; pre-emergence, Preemergence) was 100%. The pest or weed control at 62 g/ha ([8]; pre-emergence, Preemergence) was 100%, the pest or weed control at 125 g/ha ([8]; pre-emergence, Preemergence) was 100% and the pest or weed control at 250 g/ha ([8]; pre-emergence, Preemergence) was 100%. For the same molecule, the plant injury at 31 g/ha (soybean (Glycine max); [11]) was 80%, the plant injury at 62 g/ha (soybean (Glycine max); post-emergence, Postemergence) was 90% and the plant injury at 125 g/ha (soybean (Glycine max); post-emergence, Postemergence) was 90%. For the same molecule, the plant injury at 250 g/ha (soybean (Glycine max); post-emergence, Postemergence) was 90%, the plant injury at 62 g/ha (soybean (Glycine max); pre-emergence, Preemergence) was 55% and the plant injury at 125 g/ha (soybean (Glycine max); pre-emergence, Preemergence) was 95%. The plant injury at 250 g/ha (soybean (Glycine max); pre-emergence, Preemergence) was 98%, the Plant response rating ([9]; Postemergence, 31 g ai/ha) was 75 and the Plant response rating ([9]; Postemergence, 62 g ai/ha) was 75. The Plant response rating ([9]; Postemergence, 125 g ai/ha) was 90, the Plant response rating ([9]; Postemergence, 250 g ai/ha) was 90 and the Plant response rating ([9]; Preemergence, 31 g ai/ha) was 95. For the same molecule, the Plant response rating ([9]; Preemergence, 62 g ai/ha) was 95, the Plant response rating ([9]; Preemergence, 125 g ai/ha) was 95 and the Plant response rating ([9]; Preemergence, 250 g ai/ha) was 98. It also gave a pest or weed control at 31 g/ha ([10]; post-emergence, Postemergence) of 5%, a pest or weed control at 62 g/ha ([10]; post-emergence, Postemergence) of 5% and a pest or weed control at 125 g/ha ([10]; post-emergence, Postemergence) of 10%. For the same molecule, the pest or weed control at 250 g/ha ([10]; post-emergence, Postemergence) was 10%, the pest or weed control at 31 g/ha ([10]; pre-emergence, Preemergence) was 20% and the pest or weed control at 62 g/ha ([10]; pre-emergence, Preemergence) was 30%. It also gave a pest or weed control at 125 g/ha ([10]; pre-emergence, Preemergence) of 55% and a pest or weed control at 250 g/ha ([10]; pre-emergence, Preemergence) of 75%.
